pIC50: −log10 of the molar value.
molecular target: T1, human MRGPR X4 (Homo sapiens, UniProt Q96LA9); assay: MRGPR X4 antagonist activity, IP-One Gq HTRF assay in stably transfected HEK cells; assay type: cell-based; details: not given
T1 construct: expressed in transfected cells
Method in brief: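 IC50 comes from HTRF IP-1 accumulation in stably transfected HEK cells expressing human MRGPR X4. Compounds (10 uM top, 1:3 serial, 10 points) were co-incubated with 10 μM bilirubin, 20 μM deoxycholic acid or 100 μM conjugated bilirubin in LiCl-containing buffer, pH 8, for 1 h at 37 °C plus 30 min at room temperature.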

T1 sequence (Q96LA9 whole entry): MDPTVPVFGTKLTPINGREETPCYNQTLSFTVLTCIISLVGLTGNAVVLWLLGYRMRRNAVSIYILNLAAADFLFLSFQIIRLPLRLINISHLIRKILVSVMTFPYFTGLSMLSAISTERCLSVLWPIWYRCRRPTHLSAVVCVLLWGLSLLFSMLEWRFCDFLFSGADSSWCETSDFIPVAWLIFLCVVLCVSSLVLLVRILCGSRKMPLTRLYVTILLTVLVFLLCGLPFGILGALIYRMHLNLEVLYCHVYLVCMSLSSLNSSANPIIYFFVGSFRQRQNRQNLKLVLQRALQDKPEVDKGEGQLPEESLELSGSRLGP

| SMILES | pIC50 |
| --- | --- |
| O=C(NS(=O)(=O)c1ccc(Cl)cc1Cl)c1nn(Cc2cccc(F)c2)c2ccccc12 [Compound 261] | 6.00 to 6.30 |
| O=C(NCCc1nc2c(s1)CCCC2)c1nn(Cc2ccc(Cl)c(F)c2)c2ccccc12 [Compound 54] | 6.30 to 7.00 |
| O=C(NCc1nc2ccccc2[nH]1)c1nn(Cc2ccc(Cl)cc2)c2ccccc12 [Compound 352] | 6.30 to 7.00 |
| COc1ccc(CCNC(=O)c2nn(Cc3ccc(Cl)cc3)c3ccccc23)cc1OC [Compound 343] | 6.00 to 6.30 |
| Cc1ccc(Cn2nc(C(=O)NCCc3nnc4n3CCCCC4)c3cccc(F)c32)cc1 [Compound 116] | 5.60 to 6.00 |
| COc1ccc(Cn2nc(C(=O)NCCc3cccnc3)c3ccccc32)cc1 [Compound 66] | 6.30 to 7.00 |
| O=C(NCc1ccc(O)cc1)c1nn(Cc2ccc(Cl)cc2)c2ccccc12 [Compound 376] | 6.00 to 6.30 |
| O=C(NCCc1c[nH]c2ccccc12)c1nn(Cc2ccc(OC(F)(F)F)cc2)c2ccccc12 [Compound 93] | 5.60 to 6.00 |
| CN(C)c1cccc(Cn2nc(C(=O)NCCc3nnc4ccccn34)c3ccccc32)c1 [Compound 451] | 6.30 to 7.00 |
| O=C(NCCC1CCS(=O)(=O)CC1)c1nn(Cc2ccc(Cl)cc2)c2ccccc12 [Compound 385] | < 5.60 |
| Cc1nc(CCNC(=O)c2nn(Cc3ccc(Cl)cc3)c3ccccc23)sc1C(=O)O [Compound 88] | 6.00 to 6.30 |
| C#Cc1ccc(Cn2nc(C(=O)NCCc3nnc4ccccn34)c3ccccc32)cc1 [Compound 445, N-(2-([1,2,4]triazolo[4,3-a]pyridin-3-yl)ethyl)-1-(4-ethynylbenzyl)-1H-indazole-3-carboxamide] | 6.30 to 7.00 |
| O=C(NCCc1nnc2ccccn12)c1nn(Cc2ccc(Cl)cc2)c2cccc(Cl)c12 [Compound 547] | 6.00 to 6.30 |
| Cc1nc(Cn2nc(C(=O)NCCc3nnc4ccccn34)c3ccccc32)nc2ccccc12 [Compound 431] | 5.60 to 6.00 |
| O=C(NCCc1nnc2ccccn12)c1nn(Cc2ccc(Cl)c(Cl)c2)c2ccccc12 [Compound 526] | > 7.00 |
| O=C(NCc1ncc(-c2ccccc2)[nH]1)c1nn(Cc2ccc(Cl)cc2)c2ccccc12 [Compound 429] | 6.00 to 6.30 |
| O=C(NCCc1cccc(Cl)c1)c1nn(Cc2ccc(Cl)cc2)c2ccccc12 [Compound 339] | 6.00 to 6.30 |
| Cn1nc(CNC(=O)c2nn(Cc3ccc(Cl)cc3)c3ccccc23)c2cccnc21 [Compound 389] | < 5.60 |
| O=C(NCCc1nnc2ccccn12)c1nn(Cc2ccc(Cl)cc2)c2ccc(Cl)cc12 [Compound 12] | > 7.00 |
| CCc1nc(CCNC(=O)c2nn(Cc3ccc(Cl)cc3)c3ccccc23)sc1C [Compound 79] | 6.00 to 6.30 |
| O=C(NCCc1cccc(OC(F)(F)F)c1)c1cn(Cc2ccc(Cl)cc2)c2ccccc12 [Compound 200] | 5.60 to 6.00 |
| O=C(NCCc1cccnc1C(F)(F)F)c1cn(Cc2ccc(Cl)cc2)c2ccccc12 [Compound 189] | 6.00 to 6.30 |
| O=C(NCCc1cccnc1)c1nn(Cc2ccccc2Cl)c2ccccc12 [Compound 89] | 6.00 to 6.30 |

| SMILES | pIC50 |
| --- | --- |
| N#Cc1cccc2c1c(C(=O)NCCc1nnc3ccccn13)nn2Cc1ccc(Cl)cc1 [Compound 546] | 6.30 to 7.00 |
| O=C(NCCc1c[nH]c2ccc(O)cc12)c1nn(Cc2ccc(Cl)cc2)c2ccccc12 [Compound 338] | 6.30 to 7.00 |
| Cc1ncccc1CCNC(=O)c1cn(Cc2cccc(F)c2)c2ccccc12 [Compound 212] | 5.60 to 6.00 |
| O=C(NCCc1nc2c(s1)CCCC2)c1nn(Cc2ccc(Cl)c(Cl)c2)c2ccccc12 [Compound 56] | 6.30 to 7.00 |
| CS(=O)(=O)c1ccc(CNC(=O)c2nn(Cc3ccc(Cl)cc3)c3ccccc23)cc1 [Compound 378] | < 5.60 |
| N#Cc1ccc(Cn2cc(C(=O)NCCc3ccccn3)c3ccccc32)cc1 [Compound 184] | 6.00 to 6.30 |
| Cc1ccc(Cn2nc(C(=O)NCCc3ncnn3C)c3ccccc32)cc1 [Compound 113] | 5.60 to 6.00 |
| O=C(Cn1nc(C(=O)NCCc2nnc3ccccn23)c2ccccc21)c1ccc(F)c(F)c1 [Compound 517] | 5.60 to 6.00 |
| N#Cc1ccc(Cn2nc(C(=O)NCCc3nnc4ccccn34)c3ccccc32)s1 [Compound 466] | 6.30 to 7.00 |
| Cc1ccc(Cn2cc(C(=O)NCCc3cn4c(n3)SCC4)c3ccccc32)cc1 [Compound 181] | 6.30 to 7.00 |
| O=C(NCCc1ccncc1)c1nn(Cc2ccc(Cl)cc2)c2ccccc12 [Compound 31] | 6.30 to 7.00 |
| Cn1ccc(CCNC(=O)c2nn(Cc3ccc(Cl)cc3)c3ccccc23)n1 [Compound 48] | 6.30 to 7.00 |
| O=C(NCc1ccc2ncccc2c1)c1nn(Cc2ccc(Cl)cc2)c2ccccc12 [Compound 372] | < 5.60 |
| O=C(NS(=O)(=O)c1ccc(F)cc1)c1nn(Cc2ccc(OC(F)F)cc2)c2ccccc12 [Compound 266] | 6.00 to 6.30 |
| Cc1ccccc1CCNC(=O)c1nn(Cc2ccc(Cl)cc2)c2ccccc12 [Compound 363] | < 5.60 |
| CCn1c(Cn2nc(C(=O)NCCc3nnc4ccccn34)c3ccccc32)nc2ccccc21 [Compound 480] | 6.00 to 6.30 |
| Cc1ccc2c(c1)c(C(=O)NCCc1nnc3ccccn13)nn2Cc1ccc(Cl)cc1 [Compound 530, N-(2-([1,2,4]triazolo[4,3-a]pyridin-3-yl)ethyl)-1-(4-chlorobenzyl)-5-methyl-1H-indazole-3-carboxamide] | > 7.00 |
| COc1cccc(F)c1CNC(=O)c1nn(Cc2ccc(Cl)cc2)c2ccccc12 [Compound 335] | < 5.60 |
| COc1cc(Cl)ccc1Cn1nc(C(=O)NCCc2cccnc2)c2ccccc21 [Compound 114] | 5.60 to 6.00 |
| Cc1c(Cn2nc(C(=O)NCCc3nnc4ccccn34)c3ccccc32)cccc1-c1ccccc1 [Compound 449] | 6.30 to 7.00 |
| Cc1ccc(CCNC(=O)c2nn(Cc3ccc(Cl)cc3)c3ccccc23)cn1 [Compound 21] | > 7.00 |
| O=C(NCCc1cccc(F)c1)c1cn(Cc2ccc(Cl)cc2)c2ccccc12 [Compound 162] | 6.30 to 7.00 |
| Cc1ccc(Cn2cc(C(=O)NCCc3ccccn3)c3ccccc32)cc1 [Compound 158] | 6.30 to 7.00 |

| SMILES | pIC50 |
| --- | --- |
| O=C(O)c1nn(Cc2ccc(Cl)c(Cl)c2)c2ccccc12 [Compound 318] | 5.60 to 6.00 |
| Cc1ccc(Cn2nc(C(=O)O)c3cc(Cl)ccc32)cc1 [Compound 330] | < 5.60 |
| N#Cc1ccc(Cn2nc(C(=O)NCCc3nnc4ccccn34)c3ccccc32)cn1 [Compound 464] | 5.60 to 6.00 |
| O=C(NCCn1nnc2ccccc21)c1nn(Cc2ccc(Cl)cc2)c2ccccc12 [Compound 361] | > 7.00 |
| Cc1ccncc1CCNC(=O)c1cn(Cc2ccc(Cl)cc2)c2ccccc12 [Compound 161] | 6.30 to 7.00 |
| N#Cc1ccc(Cn2cc(C(=O)NCCc3ccc(Cl)c(F)c3)c3ccccc32)cc1 [Compound 188] | 6.00 to 6.30 |
| CC(=O)c1ccc(Cn2cc(C(=O)NCCc3cccnc3)c3ccccc32)cc1 [Compound 191] | 6.00 to 6.30 |
| O=C(NCCc1cccnc1)c1cn(Cc2ccc(OC(F)(F)F)cc2)c2ccccc12 [Compound 173] | 6.30 to 7.00 |
| Cc1cccnc1CCNC(=O)c1nn(Cc2ccc(Cl)cc2)c2ccccc12 [Compound 77] | 6.00 to 6.30 |
| O=C(CNC(=O)c1nn(Cc2ccc(Cl)cc2)c2ccccc12)NCC(F)(F)F [Compound 347] | < 5.60 |
| O=C(NCCc1nnc2ccccn12)c1nn(Cc2ccc(Cl)cc2)c2c(Cl)cccc12 [Compound 539] | > 7.00 |
| O=C(NCCc1ccno1)c1nn(Cc2ccc(Cl)cc2)c2ccccc12 [Compound 90] | 6.00 to 6.30 |
| COc1cc(Cl)ccc1Cn1nc(C(=O)NCCc2nc3c(s2)CCCC3)c2ccccc21 [Compound 123] | < 5.60 |
| O=C(NCc1ccc(-n2ccnc2)cc1)c1nn(Cc2ccc(Cl)cc2)c2ccccc12 [Compound 426] | 5.60 to 6.00 |
| O=C(NCCc1ccccc1C(F)(F)F)c1cn(Cc2ccc(Cl)cc2)c2ccccc12 [Compound 190] | 6.00 to 6.30 |
| O=C(NCCc1cccnc1)c1cn(Cc2ccc(OC(F)F)cc2)c2ccccc12 [Compound 166] | 6.30 to 7.00 |
| O=C(NCCc1cccnc1)c1nn(Cc2cccc(Cl)c2)c2ccccc12 [Compound 87] | 6.00 to 6.30 |
| O=C(NCc1nc2ccccc2o1)c1nn(Cc2ccc(Cl)cc2)c2ccccc12 [Compound 393] | < 5.60 |
| Cc1ccc(CCNC(=O)c2cn(Cc3ccc(Cl)cc3)c3ccccc23)cc1 [Compound 175] | 6.30 to 7.00 |
| Cc1cnc(CCNC(=O)c2cn(Cc3ccc(Cl)cc3)c3ccccc23)nc1 [Compound 207] | 5.60 to 6.00 |
| O=C(NCCc1ccc(Cl)c(F)c1)c1cn(Cc2cccc(F)c2)c2ccccc12 [Compound 210] | 5.60 to 6.00 |

same assay, conditions: versus 20 μM deoxycholic acid agonist; HEK cells expressing human MRGPR X4; read-out: MRGPRX4 Antagonist Activity

| SMILES | pIC50 |
| --- | --- |
| COc1cccc(S(=O)(=O)NC(=O)c2nn(Cc3ccc(OC(F)F)cc3)c3ccccc23)c1 [Compound 285] | 5.60 to 6.00 |
| N#Cc1ccc(S(=O)(=O)NC(=O)c2nn(Cc3ccc(OC(F)F)cc3)c3ccccc23)cc1 [Compound 280] | 5.60 to 6.00 |
| Cc1cc(F)cc(S(=O)(=O)NC(=O)c2nn(Cc3ccc(OC(F)F)cc3)c3ccccc23)c1 [Compound 274] | 5.60 to 6.00 |
| O=C(NCCS(=O)(=O)c1ccccc1)c1nn(Cc2ccc(Cl)cc2)c2ccccc12 [Compound 407] | 5.60 to 6.00 |
| O=C(NS(=O)(=O)c1ccccc1C(F)(F)F)c1nn(Cc2ccc(OC(F)F)cc2)c2ccccc12 [Compound 262] | 6.00 to 6.30 |
| Cc1nccn1-c1ccc(Cn2nc(C(=O)NCCc3nnc4ccccn34)c3ccccc32)cc1 [Compound 450] | < 5.60 |
| CC(C)NC(=O)CS(=O)(=O)c1cn(Cc2ccc(Cl)cc2)c2ccccc12 [Compound 248] | 5.60 to 6.00 |
| Cc1ccccc1S(=O)(=O)NC(=O)c1cn(Cc2ccc(OC(F)F)cc2)c2ccccc12 [Compound 312, 1-(4-(difluoromethoxy)benzyl)-N-(o-tolylsulfonyl)-1H-indole-3-carboxamide] | 5.60 to 6.00 |
| Cc1ccccc1NC(=O)CS(=O)(=O)c1cn(Cc2ccc(Cl)cc2)c2ccccc12 [Compound 255] | < 5.60 |
| CS(=O)(=O)NCCNC(=O)c1nn(Cc2ccc(Cl)cc2)c2ccccc12 [Compound 384] | < 5.60 |

From US20240254089A1, “MODULATORS OF MAS-RELATED G-PROTEIN RECEPTOR X4 AND RELATED PRODUCTS AND METHODS” (ESCIENT PHARMACEUTICALS, INC., priority 2020, published 2024)
